From patent US20210220331A1, “INHIBITORS OF IRES-MEDIATED PROTEIN SYNTHESIS” (The Regents of the University of California, priority 2016, published 2021)

Assays:
Assay type in all cases: cell-based
human cyclin D1 IRES = test: Dicistronic IRES mRNA reporter assay (firefly luciferase), cyclin D1 IRES; conditions: for Cyclin D1 (decrease): fold decrease in PP242-induced cyclin D1 IRES activity: LN229, relative to values obtained with parent compound C11
Description: (§1) Western blot and quantitative RT-PCR analyses were performed as previously described (19). For Western blotting, cells or tissues were lysed in RIPA (lysis) buffer containing protease inhibitor cocktail and phosSTOP phosphatase inhibitor cocktail (Roche) and extracts resolved by SDSPAGE. Proteins were transferred to PVDF membranes and incubated with the indicated antibodies. For IRES reporter assays, the indicated mRNA reporters were cotransfected into cells with pSVβ-galactosidase to normalize for transfection efficiency as described previously (16). Cells were harvested 18 h following transfection and Renilla, firefly and β-galactosidase activities determined using the Dual-Glo Luciferase and β-galactosidase assay systems (Promega).
(§2) (B) Schematic diagrams of the dicistronic constructs used in this study. Constructs used are pRF, pRCD1F, which contains the human cyclin D1 IRES, pRmycF, containing the human c-myc IRES, pRp27F, containing the human p27Kip1 IRES and pRECMVF, containing the IRES from encephalomyocarditis virus. (C) Relative Renilla and firefly luciferase activities obtained from LN229 GBM cells transfected with the indicated constructs in the absence or presence of the inhibitor C11. The mean and +SD are shown for three independent experiments. […] (D) RNA-pull down assays utilizing biotinylated cyclin D1 or c-MYC IRES RNAs. Cytoplasmic extracts of LN229 cells treated with C11 (50 nM) as indicated were incubated with biotinylated cyclin D1 or c-MYC IRES RNAs and precipitated with streptavidin-Sepharose beads. Input and bound fractions were analyzed by immunoblotting using hnRNP A1 antibodies. […] RT-PCR measurements were performed in quadruplicate and the mean and +S.D. are shown. […] (F) Top panel, LN229 cells were treated with C11 as indicated and RT-PCR splicing analysis for Max exon 5 performed as described in the Experimental Methods section. Middle panel, LN229 cells treated with C11 (50 nM) as indicated, were lysed and immunoprecipitated using either eIF-4E or control IgG antibodies. Bound CCND1 or c-MYC RNAs were detected via RT-PCR. The mean and +S.D. are shown for three independent experiments. Bottom panel, cyclin D1 and c-MYC protein levels from the indicated GBM cell lines in the absence or presence of C11 at 24 h following treatment. C11 specifically blocks c-Myc IRES-mediated translation initiation by disrupting the ITAF hnRNP A1-IRES interaction.
(§3) Several dicistronic IRES mRNA reporter constructs were utilized, shown in FIG. 1B, in which the indicated IRES sequences were inserted within the intercistronic region. LN229 cells transiently transfected with these constructs were assayed for Renilla and firefly luciferase activities, which are readouts of cap-dependent and IRES-mediated translation initiation, respectively (16). […]

human c-myc IRES [1] = test: Dicistronic IRES mRNA reporter assay (firefly luciferase), c-myc IRES; conditions: for c-myc (decrease): fold decrease in PP242-induced c-MYC IRES activity: LN229, relative to values obtained with parent compound C11
Description: as §1, §2, §3

LN229 cells [2] = test: Combination analysis with PP242 (XTT, combination index) in LN229; conditions: combination of PP242 and analog, CI=1.0 dose additive, CI<0.5 synergy, CI<0.3 strong synergy
Description: Fold decrease in either PP242-induced cyclin D1 or c-MYC IRES activity in LN229 relative to values obtained with the parent compound C11 are shown for each analog. […] CI=1.0 (dose additive), CI<0.5 (synergy), CI<0.3 (strong synergy).
The structure-activity relationships (SAR) for C11 and related compounds were investigated by synthesizing and testing the analogs listed in Table 1. […] The degree of apoptotic cell death following co-treatment with analog and PP242 was also monitored.

LN229 cells [3] = test: Apoptosis via Annexin V staining in LN229; conditions: LN229 cotreated with PP242 (50 nM) and analog (100 nM), 24 h
[4] = target: T1, hnRNP A1 binding to cyclin D1 or c-MYC IRES RNAs (Homo sapiens, UniProt P09651); test: RNA-pull down assay with biotinylated cyclin D1 or c-MYC IRES RNAs
T1 construct: endogenous in cells; host or cells: LN229 glioblastoma cells; 293T cells
Description: For immunopurification of eIF4E and bound RNA (21), cells were lysed in buffer containing 50 mM Tris-HCl (pH 7.4), 300 mM NaCl, 0.5% NP-40, 10 mM NaF, 1 mM sodium orthovanidate, 1 mM PMSF, 1.5% aprotinin and SUPERase-IN (ThermoFisher Scientific), 0.025 units/ml, using a Dounce homogenizer at 4° C. Extracts were cleared by centrifugation and immunoprecipitated with eIF4E or control IgG. Beads were washed and obtained RNA was subjected to quantitative RTPCR. For quantitative RT-PCR, extraction of RNA was performed using Trizol (ThermoFisher). Total RNA was then quantified and integrity assessed using an Agilent 2100 Bioanalyzer (Agilent Technology). Total RNA was reverse transcribed with random primers using the RETROscript Kit from ThermoFisher. SYBR Green quantitative PCR was performed in triplicate in 96-well optical plates on an ABI Prism 7000 Sequence Detection System (Life Technologies) according to the manufacturer's instructions. Primer sequences for CCND1, c-MYC and actin are available upon request. […]
(B) Schematic diagrams of the dicistronic constructs used in this study. […] Input and bound fractions were analyzed by immunoblotting using hnRNP A1 antibodies. […] Bound CCND1 or c-MYC RNAs were detected via RT-PCR. […]

human c-myc IRES [5] = test: Dicistronic IRES mRNA reporter assay (firefly luciferase), c-myc IRES; conditions: 293T cells, 50 nM, 24 h
[6] = LN229 cells, cotreatment with rapamycin or PP242

T1 sequence (P09651 whole entry): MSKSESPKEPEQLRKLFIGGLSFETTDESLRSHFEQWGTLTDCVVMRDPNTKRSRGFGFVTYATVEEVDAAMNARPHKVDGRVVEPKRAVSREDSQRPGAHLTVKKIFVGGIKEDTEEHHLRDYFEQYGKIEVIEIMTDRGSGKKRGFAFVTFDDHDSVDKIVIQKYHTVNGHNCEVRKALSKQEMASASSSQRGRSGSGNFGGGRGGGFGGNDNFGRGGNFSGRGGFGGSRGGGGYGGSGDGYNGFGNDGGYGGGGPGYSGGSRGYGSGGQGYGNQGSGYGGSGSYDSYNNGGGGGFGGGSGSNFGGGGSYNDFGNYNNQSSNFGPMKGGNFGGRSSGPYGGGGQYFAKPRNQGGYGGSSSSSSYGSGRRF

COc1ccc(CN2C(=O)C(Cl)=C(Cl)C2=O)c(OC)c1 [Compound C11, reference compound]
Cyclin D1 (decrease): fold decrease in PP242-induced cyclin D1 IRES activity (human cyclin D1 IRES): 1.0 fold | mTOR inhibitor-induced cyclin D1 IRES activity (human cyclin D1 IRES; [6]): significantly inhibited | cyclin D1 IRES activity (human cyclin D1 IRES; LN229 cells, inhibitor alone): significantly inhibited | c-myc (decrease): fold decrease in PP242-induced c-MYC IRES activity (human c-myc IRES [1]): 1.0 fold | mTOR inhibitor-induced c-MYC IRES activity (human c-myc IRES [1]; [6]): significantly inhibited | c-MYC IRES activity (human c-myc IRES [1]; LN229 cells, inhibitor alone): significantly inhibited | CI ED50, 1:100 (combination index) (LN229 cells [2]): 0.50 | % Apoptosis (100 nM) (LN229 cells [3]): 25.9% | hnRNP A1 binding to cyclin D1 or c-MYC IRES RNAs ([4]; extracts of LN229 cells treated with 50 nM): markedly reduced hnRNP A1 binding | basal c-MYC IRES activity (human c-myc IRES [5]): reduced IRES activity

COc1ccc(CN2C(=O)c3ccccc3C2=O)c(OC)c1 [IRES-J007, 2-((2,4-Dimethoxyphenyl)methyl)isoindoline-1,3-dione]
Cyclin D1 (decrease): fold decrease in PP242-induced cyclin D1 IRES activity (human cyclin D1 IRES): 4.97 ± 0.13 fold | c-myc (decrease): fold decrease in PP242-induced c-MYC IRES activity (human c-myc IRES [1]): 6.51 ± 0.07 fold | CI ED50, 1:100 (combination index) (LN229 cells [2]): 0.42 | % Apoptosis (100 nM) (LN229 cells [3]): 62.4% | ability to block cyclin D1 or c-MYC IRES-hnRNP A1 interactions relative to C11 ([4]; 293T cell extracts): improved ability | basal c-MYC IRES activity (human c-myc IRES [5]): reduced IRES activity
